Assay results as given in US10413518B2, “CYP450 lipid metabolites reduce inflammation and angiogenesis” (Massachusetts Eye and Ear Infirmary, priority 2013, dated 2019).

Assays:
[1] = tested on: peripheral blood leukocytes (PBLs) on P-selectin and ICAM-1; test: Autoperfused microflow chamber assay, chamber coated with P-selectin and ICAM-1; format: in vivo; details: metabolite administered to mice with laser-induced CNV; for Leucocyte rolling: FIGS. 9A-D
Description: Autoperfused microflow chamber assay. Leukocyte rolling velocity was analyzed using the autoperfused microflow chamber assay.^33,43 In brief, translucent microchambers (0.4×0.04×50 mm; VitroCom) were coated overnight at 4° C. with either recombinant murine P-selectin, or combination P-selectin and ICAM1 (R&D Systems) at a concentration of 5 μg/ml each. The microchambers were then connected at both ends to biocompatible polyester tubing (PE10, Becton Dickinson). Thereafter, both the tubing and microchamber were incubated with 0.1% bovine serum albumin (Sigma-Aldrich) for 1 h to block nonspecific leukocyte interaction with their inner surfaces. The free ends of the tubing were then connected microsurgically to the right carotid artery and left jugular vein of an anesthetized mouse. In this system, blood flows from the carotid artery into the biocompatible inlet tubing, passes through the microchamber, and reenters the animal's body via the outlet tubing and jugular vein. The rate of blood flow is regulated by adjustment of the diameter of the inlet tubing with a screw valve. Microtransducers (Harvard Apparatus) attached to the chamber by three-way connectors embedded before and after the microchamber allow the continuous measurement of blood pressure. The analog output of the microtransducers unit was digitalized with an A/D converter (ML785 PowerLab/8SP, ADInstruments) connected to a PC computer running CHART V7 software (ADInstruments). The measured values at the inlet and outlet of the microchamber were used to calculate the pressure drop (ΔP). […] Ten different fields of view were recorded for at least 30 seconds. Leukocyte rolling velocity was determined from the displacement of individual cells interacting with the chamber surface over time (Δd/Δt). The displacement of leukocytes was determined using image J software 1.46 (NIH). Flux was defined as the number of interacting leukocytes per field of view, averaged over 10 independent field of views. To account for the hemodynamic conditions within the chamber, the blood pressure before the inlet and after the outlet of the chamber was measured, from which the drop of pressure Δp and the shear stress were derived

laser-induced CNV [2] = test: Laser-induced CNV, lesion size in choroidal flat-mounts stained with isolectin B4; format: in vivo, mice; details: 7 days after CNV induction; for Protection from laser-induced CNV (choroidal flatmount): intraperitoneal daily, 5 or 50 μg/kg/day, vs vehicle
Description: (§1) Laser-induced model of CNV. Laser photocoagulation was performed 2 weeks after the onset of feeding with the ω-3 or ω-6 LCPUFA diets with the use of a 532-nm laser (Oculight GLx Laser System, IRIDEX) attached to a slitlamp, with a coverslip being used to applanate the cornea in order to afford a view of the posterior pole of the eye. Four lesions located at the 3, 6, 9, and 12 o'clock meridians centered on the optic nerve (size and leakage studies) or 10 lesions (protein and mRNA analysis) were induced in both eyes with the same settings: spot size of 100 μm, pulse duration of 0.1 s, and laser power of 100 mW.^25 The lesions were located two or three disc diameters from the optic nerve. Laser-induced disruption of Bruch's membrane was identified by the appearance of a bubble at the site of photocoagulation. […] One investigator executed all laser photocoagulation.
Choroid flat-mount preparation. For evaluation of the size of CNV lesions, mice were anesthetized with Avertin (Sigma) and sacrificed by cervical dislocation at 5 or 7 days after laser photocoagulation. The eyes were removed and fixed in 4% paraformaldehyde for 60 min at room temperature, the cornea and lens were removed, and the entire retina was carefully dissected from the eyecup. Radial cuts (average, eight) were made from the edge of the eyecup to the equator, and the preparation was then washed with ice-cold PBS containing 0.3% Tween 20.^41 For visualization of vessels, the eyecup was stained overnight at room temperature with Alexa Fluor 488—conjugated Griffonia (Bandeiraea) simplicifolia isolectin B4 (Invitrogen) at a dilution of 1:100. The eyecup was flat-mounted on Superfrost/Plus microscope slides (Fisher) in SlowFade Antifade reagent (Invitrogen) with the sclera facing down and the choroid facing up. Fluorescence images of choroidal flat-mounts were captured with a Zeiss AxioCam MRm camera and Zeiss AxioObserver.Z1 microscope. The CNV area was measured with the use of Image J software.

laser-induced CNV [3] = test: Laser-induced CNV, cross-sectional lesion area by SD-OCT; format: in vivo, mice; details: 7 days after CNV induction; for Protection from laser-induced CNV (SD-OCT): intraperitoneal daily, 5 or 50 μg/kg/day, vs vehicle
Description: as §1
Spectral domain optical coherence tomography (SD-OCT). SD-OCT was performed with a Bioptigen system at 5 and 7 days after laser photocoagulation. Mice were anesthetized with Avertin (Sigma) and positioned on a custom cassette that allowed three-dimensional free rotation for alignment of the eye for imaging. Hydration with normal saline was used to preserve corneal clarity. The B-scan were performed with 100 horizontal, raster, and consecutive B-scan lines, each one composed of 1000 A-scans. The area size was 1.4 by 1.4 mm. The software was able to generate an en face fundus image with the reflectance information obtained from the OCT sections (volume intensity projection), so that a point-to-point correlation between OCT and fundus position was possible and accurate. For evaluation of the cross-sectional size of each lesion in OCT images, the sections passing through the center of the CNV were chosen. […] We narrowed and positioned it to the level of the retinal pigment epithelium—choroid complex, so that the area of the retinal pigment epithelium—Bruch's membrane rupture was readily identifiable in the fundus image as a hyporeflective spot.^25

laser-induced CNV [4] = test: Laser-induced CNV, vascular leakage by fluorescein angiography; format: in vivo, mice; details: 7 days after CNV induction; for Vascular leakage after CNV induction: intraperitoneal daily, 5 or 50 μg/kg/day, vs vehicle
Description: as §1
Fluorescein angiography. Fluorescein angiography was performed with a camera and imaging system (TRC 50 VT camera and IMAGEnet 1.53 system,
Topcon) at 5 and 7 days after laser photocoagulation. Photographs were captured with a 20-diopter lens in contact with the fundus camera lens after intraperitoneal injection of 0.1 ml of 2% fluorescein sodium (Akorn). […] Lesions were graded according to a previously established scheme as follows: 0 (not leaky), faint hyperfluorescence or mottled fluorescence without leakage; 1 (questionable leakage), hyperfluorescent lesion without progressive increase in size or intensity; 2A (leaky), hyperfluorescence increasing in intensity but not in size; 2B (clinically significant leakage), hyperfluorescence increasing in intensity and in size.^42

CD18 = test: Flow cytometric analysis of CD18 on PBLs; format: in vivo, mice; details: metabolite administered, laser-induced CNV model
Description: (§2) Isolation of PBLs for flow cytometric analysis. Blood freshly collected from the mouse heart with an EDTA-treated syringe was incubated for 30 min on ice with phycoerythrin-conjugated rat monoclonal antibodies to CD11b (M1/70, BD Biosciences) or to CD18 (C71/16, BD Biosciences), or with isotype control antibodies, at a ratio of 1 μg per 1×10^6 total cells. Red blood cells were lysed with the use of Easy-Lyse (Leinco Technologies), and the remaining cells were isolated by centrifugation and resuspended in PBS on ice for immediate flow cytometric analysis. PBLs were gated according to their characteristic forward and side scatter with the use of a Cytomics FC500 instrument (Beckman Coulter), and data were analyzed with FlowJo 10.0 software […].

CD11b = test: Flow cytometric analysis of CD11b on PBLs; format: in vivo, mice; details: metabolite administered, laser-induced CNV model
Description: as §2

PPARγ = PPARγ activity in retinal nuclear extracts (ELISA-based TransAM kit); format: in vivo; details: ω-3-fed mice, IP daily 1 mg/kg, 7 days after CNV induction
Description: Measurement of PPARγ activity. The retinas (n=8) of mice were pooled to reduce biological variability and were homogenized in an ice-cold hypotonic buffer (ActiveMotif) for preparation of a nuclear fraction. The nuclear extract (20 μg of protein) was assayed for PPARγ activity with the use of an ELISA-based TransAM kit (ActiveMotif).

[5] = ω-3 LCPUFA diet, IP daily 1 mg/kg

CCCCC/C=C\C/C=C\CC1OC1C/C=C\CCCC(=O)O (stereo not shown) [8,9-EET, reference compound]
Leucocyte rolling [1]: increased leucocyte rolling

CCCCC/C=C\C[C@H]1O[C@H]1C/C=C\C/C=C\CCCC(=O)O [11,12-EET, reference compound]
Leucocyte rolling [1]: increased leucocyte rolling

CCCCCC1OC1C/C=C\C/C=C\C/C=C\CCCC(=O)O (stereo not shown) [14,15-EET, reference compound]
Leucocyte rolling [1]: increased leucocyte rolling

CCC1OC1C/C=C\C/C=C\C/C=C\C/C=C\CCCC(=O)O (stereo not shown) [17,18-EEQ, 17,18-epoxyeicosatetraenoic acid]
Protection from laser-induced CNV (choroidal flatmount) (laser-induced CNV [2]): significant and dose-dependent protection | Protection from laser-induced CNV (SD-OCT) (laser-induced CNV [3]): significant and dose-dependent protection | Vascular leakage after CNV induction (laser-induced CNV [4]): significantly decreased | Systemic leukocyte recruitment during CNV [1]: reduces | Leucocyte rolling [1]: decreased rolling | CD18 in peripheral blood leukocytes (CD18): suppresses

CCC1OC1CC=CCC=CCC=CCC=CCC=CCCC(=O)O (stereo not shown) [19,20-EDP, 19,20-epoxydocosapentaenoic acid]
Protection from laser-induced CNV (choroidal flatmount) (laser-induced CNV [2]): significant protection | Protection from laser-induced CNV (SD-OCT) (laser-induced CNV [3]): significant protection | Vascular leakage after CNV induction (laser-induced CNV [4]): significant protection | Systemic leukocyte recruitment during CNV [1]: reduces | Leucocyte rolling [1]: decreased rolling | CD11b in peripheral blood leukocytes (CD11b): suppresses

O=C(Nc1ccccc1)c1cc([N+](=O)[O-])ccc1Cl [GW9662, reference compound]
Effect on the protective effects of ω3-LCPUFAs on CNV size (choroidal flat-mount) (laser-induced CNV [2]; [5]): significantly reduces | Effect on the protective effects of ω3-LCPUFAs on CNV size (SD-OCT) (laser-induced CNV [3]; [5]): significantly reduces | Effect on the protective effects of ω3-LCPUFAs on leakage (laser-induced CNV [4]; [5]): significantly reduces | Activity of PPARγ in the retina (PPARγ): significantly reduces
